Data as given in ChEMBL document CHEMBL4819069, “Discovery of multifunctional anti-Alzheimer's agents with a unique mechanism of action including inhibition of the enzyme butyrylcholinesterase and γ-aminobutyric acid transporters” (Eur J Med Chem, 2021).

Assays:
[1] = molecular target: T1, Cholinesterase (Homo sapiens, UniProt P06276); test: Inhibition of human BuchE at 1 uM using butyrylthiocholine as substrate preincubated for 5 mins followed by substrate addition and measured after 5 mins by Ellman's method relative to control; conditions: time 10.0 min
T1 sequence (P06276 whole entry): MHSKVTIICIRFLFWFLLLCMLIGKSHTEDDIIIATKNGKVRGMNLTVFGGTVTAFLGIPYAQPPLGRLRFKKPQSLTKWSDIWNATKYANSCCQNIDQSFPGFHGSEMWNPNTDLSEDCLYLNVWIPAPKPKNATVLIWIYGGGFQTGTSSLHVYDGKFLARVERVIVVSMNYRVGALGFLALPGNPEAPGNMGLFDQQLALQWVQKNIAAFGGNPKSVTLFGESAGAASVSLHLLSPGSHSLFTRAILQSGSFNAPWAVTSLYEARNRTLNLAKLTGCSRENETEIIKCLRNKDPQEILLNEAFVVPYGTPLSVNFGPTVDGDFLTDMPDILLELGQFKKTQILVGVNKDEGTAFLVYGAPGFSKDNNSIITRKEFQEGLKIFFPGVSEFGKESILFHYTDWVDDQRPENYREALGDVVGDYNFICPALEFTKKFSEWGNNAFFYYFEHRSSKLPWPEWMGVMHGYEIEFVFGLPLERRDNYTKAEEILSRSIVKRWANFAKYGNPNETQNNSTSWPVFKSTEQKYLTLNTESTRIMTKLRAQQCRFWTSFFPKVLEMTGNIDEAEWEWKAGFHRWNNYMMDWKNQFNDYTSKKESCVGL

[2] = molecular target: Sodium- and chloride-dependent GABA transporter 1 (Mus musculus) (UniProt P31648); test: Inhibition of NO711 binding to mouse GAT1 expressed in HEK cell membranes at 100 uM incubated for 40 mins in presence of NO711 by LC-ESI-MS/MS analysis relative to control; conditions: Membrane
[3] = molecular target: T2, Beta-secretase 1 (Homo sapiens, UniProt P56817); conditions: dose 50.0 µM, time 60.0 min
T2 sequence (P56817 whole entry): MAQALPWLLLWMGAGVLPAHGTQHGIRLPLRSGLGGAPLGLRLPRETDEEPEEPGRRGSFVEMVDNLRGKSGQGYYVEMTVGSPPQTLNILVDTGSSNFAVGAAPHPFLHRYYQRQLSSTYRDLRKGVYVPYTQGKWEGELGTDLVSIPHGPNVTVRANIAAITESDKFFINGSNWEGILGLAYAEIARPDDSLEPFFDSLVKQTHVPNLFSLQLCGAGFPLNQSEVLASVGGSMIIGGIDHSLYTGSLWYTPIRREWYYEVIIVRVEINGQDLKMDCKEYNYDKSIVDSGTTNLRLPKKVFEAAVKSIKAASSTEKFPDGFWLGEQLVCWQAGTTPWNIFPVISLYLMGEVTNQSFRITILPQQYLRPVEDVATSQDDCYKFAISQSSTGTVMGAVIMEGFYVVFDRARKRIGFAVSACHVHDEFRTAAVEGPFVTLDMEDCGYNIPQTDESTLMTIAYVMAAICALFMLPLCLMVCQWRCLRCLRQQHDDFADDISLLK

[4] = molecular target: Cholinesterase (Equus caballus, UniProt P81908)
Cholinesterase (Equus caballus, UniProt P81908), sequence (P81908 whole entry): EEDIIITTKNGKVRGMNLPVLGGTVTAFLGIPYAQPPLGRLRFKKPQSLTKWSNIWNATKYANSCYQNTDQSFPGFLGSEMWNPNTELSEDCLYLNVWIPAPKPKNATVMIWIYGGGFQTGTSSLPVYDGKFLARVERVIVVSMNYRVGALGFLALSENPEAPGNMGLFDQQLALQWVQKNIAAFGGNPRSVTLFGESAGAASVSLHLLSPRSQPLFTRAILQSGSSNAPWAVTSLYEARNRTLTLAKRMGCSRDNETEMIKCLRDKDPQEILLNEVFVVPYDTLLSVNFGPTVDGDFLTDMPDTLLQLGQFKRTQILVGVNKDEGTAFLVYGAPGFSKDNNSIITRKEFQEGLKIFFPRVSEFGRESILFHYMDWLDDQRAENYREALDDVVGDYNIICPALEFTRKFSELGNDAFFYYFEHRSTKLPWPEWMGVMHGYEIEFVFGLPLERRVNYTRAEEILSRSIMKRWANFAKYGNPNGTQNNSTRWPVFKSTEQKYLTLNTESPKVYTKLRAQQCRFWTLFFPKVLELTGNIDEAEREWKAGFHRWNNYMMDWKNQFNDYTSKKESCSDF
Description: Inhibition of equine serum BuChE using butyrylthiocholine as substrate preincubated for 5 mins followed by substrate addition and measured after 5 mins by Ellman's method

[5] = molecular target: T3, GABA transporter 4 (Mus musculus, UniProt P31650); test: Inhibition of mouse GAT4 expressed in HEK293 cell line assessed as reduction in [3H]GABA uptake incubated for 10 mins; type: cell-based
T3 sequence (P31650 whole entry): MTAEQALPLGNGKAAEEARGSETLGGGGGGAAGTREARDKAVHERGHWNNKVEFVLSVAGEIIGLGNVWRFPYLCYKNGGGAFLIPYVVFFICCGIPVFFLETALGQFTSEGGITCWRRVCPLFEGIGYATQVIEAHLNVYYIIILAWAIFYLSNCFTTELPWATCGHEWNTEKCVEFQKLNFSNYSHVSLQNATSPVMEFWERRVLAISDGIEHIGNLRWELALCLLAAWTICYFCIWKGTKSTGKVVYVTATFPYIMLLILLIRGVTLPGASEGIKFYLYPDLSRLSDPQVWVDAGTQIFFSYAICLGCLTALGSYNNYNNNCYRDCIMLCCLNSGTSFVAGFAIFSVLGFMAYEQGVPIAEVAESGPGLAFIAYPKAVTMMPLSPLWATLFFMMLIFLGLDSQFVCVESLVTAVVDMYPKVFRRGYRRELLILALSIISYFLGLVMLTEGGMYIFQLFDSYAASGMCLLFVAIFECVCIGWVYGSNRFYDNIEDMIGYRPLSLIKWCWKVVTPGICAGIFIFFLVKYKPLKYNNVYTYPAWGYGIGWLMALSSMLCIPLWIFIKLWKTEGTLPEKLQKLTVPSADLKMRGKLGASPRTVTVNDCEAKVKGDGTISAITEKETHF

[6] = molecular target: Acetylcholinesterase (Electrophorus electricus) (UniProt O42275); test: Inhibition of electric eel AChE at 10 uM using acetylthiocholine as substrate preincubated for 5 mins followed by substrate addition and measured after 5 mins by Ellman's method relative to control; conditions: time 10.0 min
Acetylcholinesterase (Electrophorus electricus), sequence (O42275 24-633 limits assumed): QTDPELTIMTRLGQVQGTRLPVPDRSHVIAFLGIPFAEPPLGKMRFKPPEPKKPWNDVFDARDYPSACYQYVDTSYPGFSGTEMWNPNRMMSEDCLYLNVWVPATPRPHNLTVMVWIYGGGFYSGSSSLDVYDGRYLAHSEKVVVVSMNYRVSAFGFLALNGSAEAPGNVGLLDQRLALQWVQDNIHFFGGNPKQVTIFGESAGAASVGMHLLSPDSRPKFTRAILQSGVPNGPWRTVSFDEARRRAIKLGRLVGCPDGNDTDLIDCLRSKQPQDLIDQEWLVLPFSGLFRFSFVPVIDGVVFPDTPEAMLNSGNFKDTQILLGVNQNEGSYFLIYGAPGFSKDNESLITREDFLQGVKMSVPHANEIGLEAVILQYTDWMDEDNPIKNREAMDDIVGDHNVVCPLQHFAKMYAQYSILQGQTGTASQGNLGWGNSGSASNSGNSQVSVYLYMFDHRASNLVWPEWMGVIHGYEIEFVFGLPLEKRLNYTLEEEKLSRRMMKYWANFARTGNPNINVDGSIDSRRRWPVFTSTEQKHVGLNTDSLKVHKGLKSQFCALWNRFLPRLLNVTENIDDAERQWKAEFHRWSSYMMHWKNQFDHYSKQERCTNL

[7] = molecular target: Sodium- and chloride-dependent GABA transporter 1 (Mus musculus, UniProt P31648); test: Inhibition of mouse GAT1 expressed in HEK293 cell line assessed as reduction in [3H]GABA uptake incubated for 10 mins; type: cell-based
[8] = molecular target: T4, GABA transporter 4 (Mus musculus) (UniProt P31650); test: Inhibition of mouse GAT3 expressed in HEK293 cell line assessed as reduction in [3H]GABA uptake at 100 uM incubated for 10 mins relative to control; type: cell-based
T4 sequence (whole entry): T3 sequence (P31650 whole entry)

[9] = molecular target: Sodium- and chloride-dependent GABA transporter 1 (Mus musculus) (UniProt P31648); test: Inhibition of mouse GAT1 expressed in HEK293 cell line assessed as reduction in [3H]GABA uptake at 100 uM incubated for 10 mins relative to control; type: cell-based
[10] = molecular target: T5, GABA transporter 3 (Mus musculus) (UniProt P31649); test: Inhibition of mouse GAT2 expressed in HEK293 cell line assessed as reduction in [3H]GABA uptake at 100 uM incubated for 10 mins relative to control; type: cell-based
T5 sequence (whole entry): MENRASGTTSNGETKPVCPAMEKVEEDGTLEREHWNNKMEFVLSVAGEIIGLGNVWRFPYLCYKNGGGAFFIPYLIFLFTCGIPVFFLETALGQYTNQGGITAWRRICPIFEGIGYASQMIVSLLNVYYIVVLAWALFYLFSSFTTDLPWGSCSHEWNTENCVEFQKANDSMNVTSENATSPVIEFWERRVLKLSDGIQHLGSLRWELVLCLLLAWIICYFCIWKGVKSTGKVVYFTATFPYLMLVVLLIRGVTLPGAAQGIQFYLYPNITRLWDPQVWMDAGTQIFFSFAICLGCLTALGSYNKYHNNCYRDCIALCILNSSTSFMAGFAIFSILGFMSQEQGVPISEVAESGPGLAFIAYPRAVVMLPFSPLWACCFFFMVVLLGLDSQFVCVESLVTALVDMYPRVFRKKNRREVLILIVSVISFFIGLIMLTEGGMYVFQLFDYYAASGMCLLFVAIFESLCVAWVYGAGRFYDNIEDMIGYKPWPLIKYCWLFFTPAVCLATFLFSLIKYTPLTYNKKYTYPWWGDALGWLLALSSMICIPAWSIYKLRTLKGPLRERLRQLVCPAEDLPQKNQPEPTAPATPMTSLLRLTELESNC

[11] = molecular target: Amyloid-beta precursor protein (Homo sapiens) (UniProt P05067); test: Inhibition of HFIP-pretreated amyloid beta (1 to 42) (unknown origin) aggregation at 10 uM after 36 to 48 hrs by thioflavin-T fluorescence assay relative to control; conditions: time 36-48 hrs
Amyloid-beta precursor protein (Homo sapiens), sequence (P05067 whole entry): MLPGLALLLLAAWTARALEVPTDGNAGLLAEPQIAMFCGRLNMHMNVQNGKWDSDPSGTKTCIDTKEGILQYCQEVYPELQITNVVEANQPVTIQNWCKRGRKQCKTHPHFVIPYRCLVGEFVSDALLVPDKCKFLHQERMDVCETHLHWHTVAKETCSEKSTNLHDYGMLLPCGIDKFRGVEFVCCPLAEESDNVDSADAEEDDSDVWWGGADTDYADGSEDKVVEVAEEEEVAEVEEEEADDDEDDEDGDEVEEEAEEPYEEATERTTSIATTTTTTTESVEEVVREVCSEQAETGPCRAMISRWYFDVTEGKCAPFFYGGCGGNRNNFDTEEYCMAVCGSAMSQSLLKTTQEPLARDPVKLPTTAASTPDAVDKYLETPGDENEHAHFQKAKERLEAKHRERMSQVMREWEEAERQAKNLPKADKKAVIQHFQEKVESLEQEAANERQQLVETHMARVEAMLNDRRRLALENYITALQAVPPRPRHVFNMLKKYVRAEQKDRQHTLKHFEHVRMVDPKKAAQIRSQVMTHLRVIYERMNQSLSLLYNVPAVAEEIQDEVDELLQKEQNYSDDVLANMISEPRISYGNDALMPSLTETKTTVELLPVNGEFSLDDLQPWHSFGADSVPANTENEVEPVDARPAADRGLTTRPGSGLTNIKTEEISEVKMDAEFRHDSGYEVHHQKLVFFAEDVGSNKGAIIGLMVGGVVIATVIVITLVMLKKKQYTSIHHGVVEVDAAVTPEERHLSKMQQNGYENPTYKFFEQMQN

[12] = molecular target: T2, Beta-secretase 1
[13] = molecular target: T1, Cholinesterase
Description: Inhibition of human BuchE using butyrylthiocholine as substrate preincubated for 5 mins followed by substrate addition and measured after 5 mins by Ellman's method

Row | Compound | inhibition [1] | inhibition [2] | inhibition [3] | IC50 [4] | IC50 [5] | inhibition [6] | IC50 [7] | inhibition [8] | inhibition [9] | inhibition [10] | inhibition [11] | IC50 [12] | IC50 [13]
1 | O=C(N[C@@H](Cc1ccccc1)[C@@H](O)CNCc1ccccc1)C(c1ccccc1)c1ccccc1 | 40.5% | 74% | 66.1% | 230 nM | 26900 nM | < 10% | 34700 nM | 52% |  |  |  |  | 
2 | O=C(N[C@@H](Cc1ccccc1)[C@H](O)CNCc1ccccc1)C(c1ccccc1)c1ccccc1 | 34.1% |  | 56.2% | 1510 nM |  | < 10% |  |  |  |  |  |  | 
3 | O=C(N[C@@H](Cc1ccccc1)[C@H](O)CNCC1CC1)C(c1ccccc1)c1ccccc1 | 12.3% | 74% | 44.4% | 3210 nM | 74100 nM | < 10% |  | 54% | 51% | 85% | 20.5% |  | 
4 | CC(C)(C)c1cccc(CNC[C@@H](O)[C@H](Cc2ccccc2)NC(=O)CC(c2ccccc2)c2ccccc2)c1 | 77.3% |  |  | 450 nM |  | < 10% |  |  |  |  | 20.5% | 6000 nM | 
5 | CC(C)(C)c1cccc(CNCC(O)CNCCC(c2ccccc2)c2ccccc2)c1 (configuration not stated) |  |  |  | 2920 nM |  | 21.8% |  |  |  |  |  | 41600 nM | 5740 nM
6 | O=C(CC(c1ccccc1)c1ccccc1)N[C@@H](Cc1ccccc1)[C@H](O)CNCc1ccccc1 | 62.3% |  |  |  |  | < 10% |  |  |  |  | 20.5% | 35400 nM | 
7 | COc1ccccc1CNC[C@H](O)[C@H](Cc1ccccc1)NC(=O)CC(c1ccccc1)c1ccccc1 |  |  |  | 330 nM |  | < 10% |  |  |  |  | 20.5% | 23400 nM | 350 nM
8 | O=C(N[C@@H](Cc1ccccc1)[C@@H](O)CNCc1cccc(C(F)(F)F)c1)C(c1ccccc1)c1ccccc1 |  |  |  | 390 nM |  | < 10% |  |  |  |  |  | 8600 nM | 670 nM
9 | O[C@H](CNCc1ccccc1)[C@H](Cc1ccccc1)NCCC(c1ccccc1)c1ccccc1 | 71.7% |  | 55.3% | 1540 nM |  | < 10% |  |  |  |  | 34.7% |  | 
10 | CC(C)(C)CNC[C@@H](O)[C@H](Cc1ccccc1)NC(=O)CC(c1ccccc1)c1ccccc1 | 46.2% |  |  | 2770 nM |  | < 10% |  |  |  |  |  | 33600 nM | 
11 | CC(C)(NC[C@@H](O)[C@H](Cc1ccccc1)NCCC(c1ccccc1)c1ccccc1)c1ccccc1 | 53.2% |  | 71.8% | 1600 nM |  | < 10% |  |  |  |  | 34.7% |  | 
12 | CC(C)(NC[C@@H](O)[C@H](Cc1ccccc1)NC(=O)CC(c1ccccc1)c1ccccc1)c1ccccc1 | 13.3% |  |  | 3230 nM |  | < 10% |  |  |  |  | 20.5% | 8900 nM | 
13 | COc1ccccc1CNC[C@H](O)[C@H](Cc1ccccc1)NCCC(c1ccccc1)c1ccccc1 |  |  | 65.5% | 1010 nM |  | < 10% |  |  |  |  | 34.7% |  | 800 nM
14 | C[C@H](NC[C@@H](O)[C@H](Cc1ccccc1)NCCC(c1ccccc1)c1ccccc1)c1ccccc1 | 72.5% |  | 62% | 980 nM |  | < 10% |  |  |  |  | 34.7% |  | 
15 | COc1cccc(CNC[C@@H](O)[C@H](Cc2ccccc2)NC(=O)C(c2ccccc2)c2ccccc2)c1 | 56.5% | 85% | 37% | 1550 nM | 33100 nM | < 10% |  | 67% | 61% | 61% | 20.5% |  | 
16 | CC(C)c1cccc(CNC[C@@H](O)[C@H](Cc2ccccc2)NCCC(c2ccccc2)c2ccccc2)c1 | 67.4% |  |  | 1840 nM |  | 25.9% |  |  |  |  | 34.7% | 6600 nM | 
17 | O[C@H](CNCc1ccccc1)[C@H](Cc1ccccc1)NCC(c1ccccc1)c1ccccc1 |  |  | 42% | 950 nM |  | < 10% |  |  |  |  |  |  | 320 nM
18 | CC(C)c1cccc(CNC[C@H](O)[C@H](Cc2ccccc2)NC(=O)C(c2ccccc2)c2ccccc2)c1 | 74.9% |  |  | 200 nM |  | < 10% |  |  |  |  |  | 3400 nM | 
19 | COc1ccccc1CNC[C@H](O)[C@H](Cc1ccccc1)NCC(c1ccccc1)c1ccccc1 |  |  | 55.2% | 320 nM |  | < 10% |  |  |  |  | 81.4% |  | 580 nM
20 | CC(C)(C)NC[C@H](O)[C@H](Cc1ccccc1)NC(=O)CC(c1ccccc1)c1ccccc1 | < 10% |  | < 10% | 11800 nM |  | < 10% |  |  |  |  | 20.5% |  | 
21 | COc1cccc(CNC[C@@H](O)[C@H](Cc2ccccc2)NCCC(c2ccccc2)c2ccccc2)c1 | 55.4% |  | 50.6% | 2040 nM |  | < 10% |  |  |  |  | 34.7% |  | 
22 | COc1cccc(CNC[C@@H](O)[C@H](Cc2ccccc2)NC(=O)CC(c2ccccc2)c2ccccc2)c1 |  | 65% | 49% | 1280 nM | 5890 nM | < 10% |  | 92% | 67% |  | 20.5% |  | 440 nM
23 | O=C(CC(c1ccccc1)c1ccccc1)N[C@@H](Cc1ccccc1)[C@@H](O)CNCc1ccccc1 | 67.7% | 83% |  |  |  | < 10% |  | 76% | 61% | 74% | 20.5% | 17400 nM | 
24 | CC(C)(C)NC[C@H](O)[C@H](Cc1ccccc1)NC(=O)C(c1ccccc1)c1ccccc1 | 35.5% |  | < 10% | 840 nM |  | < 10% |  |  |  |  | 20.5% |  | 
25 | CC(C)(C)c1ccc(CNC[C@H](O)[C@H](Cc2ccccc2)NC(=O)C(c2ccccc2)c2ccccc2)cc1 |  |  |  | 3440 nM |  | < 10% |  |  |  |  | 20.5% | 2100 nM | 200 nM
26 | CC(C)(C)NC[C@H](O)[C@H](Cc1ccccc1)NCCC(c1ccccc1)c1ccccc1 | 68.5% |  | 51.3% | 190 nM |  | < 10% |  |  |  |  | 34.7% |  | 
27 | C[C@H](NC[C@@H](O)[C@H](Cc1ccccc1)NCC(c1ccccc1)c1ccccc1)c1ccccc1 |  |  | 53.9% | 950 nM |  | < 10% |  |  |  |  | 34.7% |  | 920 nM
28 | COc1ccccc1CNC[C@H](O)[C@H](Cc1ccccc1)NC(=O)C(c1ccccc1)c1ccccc1 |  | 80% | 66.2% | 110 nM | 20000 nM | < 10% | 87100 nM | 69% |  |  | 20.5% |  | 540 nM
